Test system: Achromobacter xylosoxidans SadB (SadB), SEQ ID NO: 26
Test: isobutyraldehyde reduction kinetics (A340, initial rates)
Type: biochemical
Conditions: read-out: KM (NADH); cofactor
Excerpt: This example describes preparation of ADH-gene constructs for over-expression/purification and measurement of enzyme activities using a time-course assay. Horse-liver ADH (HLADH; A-6128) was purchased from Sigma. Achromobacter xylosoxidans SadB (SadB), Saccharomyces cerevisiae ADH6 (ScADH6) and ADH7 (ScADH7), Entamoeba histolytica ADH1 (EhADH1), Bos Taurus Aldehyde Reductase (BtARD), Beijerinckia indica subsp. Indica ATCC 9039 (BiADH), Clostridium beijerinckii ADH (CbADH), Rana perezi ADH8 (RpADH8), Rattus norvegicus ADH1 (RnADH1), Thermus sp. ATN1 ADH (TADH), Phenylobacterium zucineum HLK1 ADH (PzADH), Methylocella silvestris BL2 ADH (MsADH), Acinetobacter baumannii AYE ADH (AbADH), Geobacillus sp. WCH70 ADH (GbADH), Vanderwaltozyma polyspora DSM 70294 ADH (VpADH), Mucor circinelloides ADH (McADH), and Rhodococcus erythropolis PR4ADH (ReADH) were the candidates for which subclones were prepared for protein expression and purification.
As a routine practice, the crude extracts and purified proteins were assayed for butanol oxidation activity, in order to ensure that the recombinant proteins were active throughout the purification process. […] Alcohol oxidation activities were carried out in 50 mM sodium phosphate buffer at pH 8.8 and aldehyde reduction reactions were assayed in 190 mM potassium phosphate buffer at pH 7.0. Depending on the nature of reaction being carried out, the enzyme and cofactor stocks were diluted in the reaction buffers at the respective pHs. Either buffer or cell extract prepared from the proprietary E. coli strain (with no ADH plasmid) was used as the negative control for assays with purified protein and cell-free extracts, respectively.
Kinetic constants of the ADH enzymes were calculated and compared to identify those candidate ADH enzymes with the most desirable properties for the conversion of isobutyraldehyde to isobutanol in the last step of the engineered pathway for isobutanol production. The assays for determining the kinetic constants were carried out using initial rates from the assays described above. […] The concentration of a given enzyme was such that it was conducive for the measurement of initial velocities over a 1-min time course. For each enzyme, Michaelis-Menten plots were generated with a broad range of substrate concentrations. Rough estimates of KM were obtained, based on which the assays were redesigned so as to use substrate concentrations in the range 0.5 to 10 times the KM value, to be able to obtain the appropriate kinetic constants. […] Reactions with isobutanol substrate were performed at 30° C. in 50 mM Sodium phosphate buffer, pH 8.8, containing 7.5 mM NAD. The Enzyme kinetics module (Version 1.3) of SigmaPlot 11 (Systat Software, Inc.) was used to fit data to Michaelis-Menten equations and calculate the kinetic constants. The kcat/KM is derived from the individual numbers of kcat and KM and not an experimentally determined value.
For those enzymes marked with an asterisk in Table 7, at least 3 assays were performed with separate preparations of the enzyme. All other numbers are values from either one assay or are averages from 2 assays performed with the same enzyme sample.

Molecule `NC(=O)C1=CN([C@@H]2O[C@H](COP(=O)(O)OP(=O)(O)OC[C@H]3O[C@@H](n4cnc5c(N)ncnc54)[C@H](O)[C@@H]3O)[C@@H](O)[C@H]2O)C=CC1` [NADH, reduced nicotinamide adenine dinucleotide] has a Km of 20 µM.

— patent publication US8765433B2, “Alcohol dehydrogenases (ADH) useful for fermentive production of lower alkyl alcohols” (priority 2009, dated 2014)
